Values of other authors, collected in patent US20160143918A1, “DRUG RELEASING AGENT BASED ON beta-SITOSTEROL AND A PREPARATION METHOD THEREOF” (School of Medicine Jiaying University, priority 2014, published 2016).

CC[C@H](CC[C@@H](C)[C@H]1CC[C@H]2[C@@H]3CC=C4C[C@@H](O)CC[C@]4(C)[C@H]3CC[C@]12C)C(C)C [β-sitosterol]
solubility in organic solvents (organic solvents): soluble in organic solvents | solubility in water (water): insoluble in water
